“And” between values parts separate entries of the source, which are not always exact repeats. Equal values may be shown once.
Test system: 475296-252-R-J1-PDC spheroid viability
Test: Anticancer human tumor 475296-252-R-J1-PDC patient-derived rectal carcinoma cell line growth inhibition [PI3K]
Settings: spheroids with HUVEC and MSC; for viability, T/C: stronger effect = lower value; for IC50: curve of compound
Source text: Combinatorial screen of targeted agents with the PI3K inhibitors inavolisib, alpelisib, duvelisib, and copanlisib in multi-cell type tumor spheroids
A high-throughput screen of multi-cell type tumor spheroids was designed to identify active combinations of targeted small molecules and PI3K pathway inhibitors. Complex spheroids include a stromal component modeled by human endothelial cells (HUVEC) and fibroblasts modeled by human mesenchymal stem cells (MSCs). The concentration ranges selected for each drug and investigational agent were based upon clinically achievable concentrations if the clinical Cmax of the agent was known.
Compounds. The drugs and investigational agents: inavolisib (NSC800729), alpelisib (NSC765974), duvelisib (NSC772469), copanlisib (NSC816437), ipatasertib (NSC767898), afuresertib (NSC778305), talazoparib (NSC767125), sapanisertib (NSC764658), selumetinib (NSC741078), tovorafenib (DAY101, NSC766906), vemurafenib (NSC761431), ravoxertinib (NSC781343), sotorasib (NSC818433), MRTX1133 (NSC 836407), abemaciclib (NSC 768073), palbociclib (NSC758247), venetoclax (NSC 766270), SY5609 (NSC837396), enzalutamide (NSC755605), and darolutamide (NSC825331), were obtained from the National Cancer Institute (NCI) Developmental Therapeutics Program Chemical Repository. The FDA-approved anticancer drug set is available from the NCI Developmental Therapeutics Program. […] The stock solutions were prepared in dimethyl sulfoxide (DMSO, Sigma-Aldrich, St. Louis, MO, cat. D2650) at 800-fold the tested concentration and stored at -70 degrees C prior to their use. All drugs and investigational agents were tested over a range starting from a high concentration at or near the clinical Cmax and decreasing in half-log increments. If the clinical Cmax for an agent had not been determined, the highest concentration tested was 10 microM.
Cell Culture. All cells were maintained in an incubator at 37 degrees C and 5% CO2 with 95% humidity. The PDC lines were cultured according to standard operating procedures established by the NCI PDMR (https://pdmr.cancer.gov/sops/default.htm). All PDCs were thawed and cultured in Matrigel-coated flasks prepared with a working solution of 1X Ham's F-12 nutrient mix, without supplementation (Invitrogen, Waltham, MA, cat. 11765054), 100 U/mL penicillin-streptomycin (Invitrogen, cat. 15140122), and 2.5% Matrigel (Corning Inc., Corning, NY, cat. 354248) for the first three passages. The 354836-022-R-J1-PDC, 475296-252-R-J1-PDC, and 997726-040-R-J2-PDC lines were cultured in 6A media, which includes advanced DMEM/F-12 (Thermo Fisher Scientific, cat. 12634028), 10 mM HEPES (Thermo Fisher Scientific, cat. 15630080), 1X GlutaMAX supplement (Thermo Fisher Scientific, cat. 35050061), 0.1 mg/mL primocin (InvivoGen, San Diego, CA, cat. ant-pm-2), 10% defined fetal bovine serum, heat inactivated (HyClone Laboratories Inc., Logan, UT, cat. SH30070.03HI), 50% L-WRN conditioned media (ATCC, cat. CRL-3276), 1.25 mM N-Acetyl-L-cysteine (Sigma-Aldrich, cat. A9165), 10 mM nicotinamide (Sigma-Aldrich, cat. N0636), 1X B-27 supplement (Thermo Fisher Scientific, cat. 17504044), 1X N-2 supplement (Thermo Fisher Scientific, cat. 17502048), and 10 microM Y-27632 dihydrochloride (Tocris Bioscience, Bristol, United Kingdom, cat. 1254). The 624824-186-R-J2-PDC line was cultured in 6C/Colon 1B media, which includes all 6A media components plus 50 ng/mL human EGF recombinant protein (Thermo Fisher Scientific, cat. PHG0311). […]
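Also: spheroids exposed to agents for seven days before readout.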

`C#Cc1c(F)ccc2cc(O)cc(-c3ncc4c(N5CC6CCC(C5)N6)nc(OCC56CCCN5CC(F)C6)nc4c3F)c12` (centres undefined) was tested, and the viability, T/C (compound 0.0316 µM) was 95.9% [middle of 4 runs], the viability, T/C (compound 0.1 µM) was 90.9% [middle of 4 runs] and the viability, T/C (compound 0.316 µM) was 84.4% [middle of 4 runs]. For the same molecule, the viability, T/C (compound 1 µM) was 70.1% [middle of 4 runs], the viability, T/C (compound 10 µM) was 56.8% [middle of 4 runs] and the IC50 was 8.36 µM and > 10 µM.

In the case of `C=CC(=O)N1CCN(c2nc(=O)n(-c3c(C)ccnc3C(C)C)c3nc(-c4c(O)cccc4F)c(F)cc23)C(C)C1` (centres undefined), the viability, T/C (compound 0.1 µM) is reported as 98.7% [middle of 4 runs], the viability, T/C (compound 0.316 µM) is reported as 97% [middle of 4 runs] and the viability, T/C (compound 1 µM) is reported as 105% [middle of 4 runs]. The viability, T/C (compound 3.16 µM) was 110% [middle of 4 runs], the viability, T/C (compound 10 µM) was 110% [middle of 4 runs] and the IC50 was over 10 µM.

`CC(Cn1ccc(-c2ccc(C#N)c(Cl)c2)n1)NC(=O)c1cc(C(C)O)[nH]n1` (centres undefined) was tested, and the viability, T/C (compound 0.0316 µM) was 105% [middle of 4 runs], the viability, T/C (compound 0.1 µM) was 96.9% [middle of 4 runs] and the viability, T/C (compound 0.316 µM) was 99% (2×) and 93.4% and 120%. For the same molecule, the viability, T/C (compound 1 µM) was 105% [middle of 4 runs], the viability, T/C (compound 3.16 µM) was 101% [middle of 4 runs] and the viability, T/C (compound 10 µM) was 105% [middle of 4 runs]. For the same molecule, the IC50 was over 10 µM.

With `CC1(C)CCC(CN2CCN(c3ccc(C(=O)NS(=O)(=O)c4ccc(NCC5CCOCC5)c([N+](=O)[O-])c4)c(Oc4cnc5[nH]ccc5c4)c3)CC2)=C(c2ccc(Cl)cc2)C1` the viability, T/C (compound 0.0316 µM) was 97.2% and 102% (2×) and 99.9%, the viability, T/C (compound 0.1 µM) was 97% [middle of 4 runs] and the viability, T/C (compound 0.316 µM) was 101% [middle of 4 runs]. The viability, T/C (compound 1 µM) was 101% [middle of 4 runs], the viability, T/C (compound 3.16 µM) was 101% (2×) and 94.9% and 88% and the IC50 was over 10 µM.

For `CC1(C)CCC(Nc2ncc(C(F)(F)F)c(-c3c[nH]c4c(P(C)(C)=O)c(C#N)ccc34)n2)CN1` (centres undefined), the viability, T/C (compound 0.0316 µM) was 90.7% [middle of 4 runs], the viability, T/C (compound 0.1 µM) was 98.6% [middle of 4 runs] and the viability, T/C (compound 0.316 µM) was 109% [middle of 4 runs]. For the same molecule, the viability, T/C (compound 1 µM) was 129% [middle of 4 runs], the viability, T/C (compound 3.16 µM) was 148% (2×) and 176% and 175% and the IC50 was over 10 µM.

With `CCCS(=O)(=O)Nc1ccc(F)c(C(=O)c2c[nH]c3ncc(-c4ccc(Cl)cc4)cc23)c1F` the viability, T/C (compound 0.0316 µM) was 101% [middle of 4 runs], the viability, T/C (compound 0.1 µM) was 95% [middle of 4 runs] and the viability, T/C (compound 0.316 µM) was 96.8% [middle of 4 runs]. For the same molecule, the viability, T/C (compound 1 µM) was 90.3% [middle of 4 runs], the viability, T/C (compound 3.16 µM) was 98.2% [middle of 4 runs] and the viability, T/C (compound 10 µM) was 95.3% [middle of 4 runs]. It also gave an IC50 of over 10 µM.

In the case of `CNC(=O)c1ccc(N2C(=S)N(c3ccc(C#N)c(C(F)(F)F)c3)C(=O)C2(C)C)cc1F`, the viability, T/C (compound 0.1 µM) is reported as 100% [middle of 4 runs], the viability, T/C (compound 0.316 µM) is reported as 96.5% [middle of 4 runs] and the viability, T/C (compound 1 µM) is reported as 99.5% [middle of 4 runs]. The viability, T/C (compound 3.16 µM) was 102% [middle of 4 runs], the viability, T/C (compound 10 µM) was 98.3% [middle of 4 runs] and the IC50 was over 10 µM.

With `C[C@@H](NC(=O)c1ncnc(N)c1Cl)c1ncc(C(=O)Nc2cc(C(F)(F)F)c(Cl)cn2)s1` the viability, T/C (compound 0.0316 µM) was 89.7% [middle of 4 runs], the viability, T/C (compound 0.1 µM) was 99.8% [middle of 4 runs] and the viability, T/C (compound 0.316 µM) was 95.5% [middle of 4 runs]. The viability, T/C (compound 1 µM) was 101% [middle of 4 runs], the viability, T/C (compound 3.16 µM) was 103% [middle of 4 runs] and the viability, T/C (compound 10 µM) was 87.5% [middle of 4 runs]. It also gave an IC50 of over 10 µM.

`Cn1ncc(Cl)c1-c1cc(C(=O)NC(CN)Cc2cccc(F)c2)sc1Cl` (centres undefined) was tested, and the viability, T/C (compound 0.0316 µM) was 85.6% [middle of 4 runs], the viability, T/C (compound 0.1 µM) was 88.6% [middle of 4 runs] and the viability, T/C (compound 0.316 µM) was 68% [middle of 4 runs]. For the same molecule, the viability, T/C (compound 1 µM) was 65.5% [middle of 4 runs], the viability, T/C (compound 3.16 µM) was 75.9% [middle of 4 runs] and the viability, T/C (compound 10 µM) was 70.7% [middle of 4 runs]. For the same molecule, the IC50 was over 10 µM.

With `Cn1nccc1Nc1nccc(-c2ccn(C(CO)c3ccc(Cl)c(F)c3)c(=O)c2)n1` (centres undefined) the viability, T/C (compound 0.0316 µM) was 104% [middle of 4 runs], the viability, T/C (compound 0.1 µM) was 96.6% [middle of 4 runs] and the viability, T/C (compound 0.316 µM) was 102% [middle of 4 runs]. The viability, T/C (compound 1 µM) was 89.5% [middle of 4 runs], the viability, T/C (compound 10 µM) was 82.3% [middle of 4 runs] and the IC50 was over 10 µM.

Reference: PubChem BioAssay AID1963980 (Molecular Pharmacology Branch, DTP, NCI, 2024)
